# Read-outs that look alike come from different tables or passages of the source.
# What was measured:
# Nrf2 = target: T1, Nrf2 (Homo sapiens, UniProt Q16236); experiment: Nrf2 degradation in A549 HiBiT-Nrf2 cells, Nano-Glo HiBiT lytic detection (HiBiT readout); assay type: cell-based; parameters: host or cells: A549 HiBiT-Nrf2 cells (engineered line bought from Promega)
# T1 sequence (Q16236 1-605): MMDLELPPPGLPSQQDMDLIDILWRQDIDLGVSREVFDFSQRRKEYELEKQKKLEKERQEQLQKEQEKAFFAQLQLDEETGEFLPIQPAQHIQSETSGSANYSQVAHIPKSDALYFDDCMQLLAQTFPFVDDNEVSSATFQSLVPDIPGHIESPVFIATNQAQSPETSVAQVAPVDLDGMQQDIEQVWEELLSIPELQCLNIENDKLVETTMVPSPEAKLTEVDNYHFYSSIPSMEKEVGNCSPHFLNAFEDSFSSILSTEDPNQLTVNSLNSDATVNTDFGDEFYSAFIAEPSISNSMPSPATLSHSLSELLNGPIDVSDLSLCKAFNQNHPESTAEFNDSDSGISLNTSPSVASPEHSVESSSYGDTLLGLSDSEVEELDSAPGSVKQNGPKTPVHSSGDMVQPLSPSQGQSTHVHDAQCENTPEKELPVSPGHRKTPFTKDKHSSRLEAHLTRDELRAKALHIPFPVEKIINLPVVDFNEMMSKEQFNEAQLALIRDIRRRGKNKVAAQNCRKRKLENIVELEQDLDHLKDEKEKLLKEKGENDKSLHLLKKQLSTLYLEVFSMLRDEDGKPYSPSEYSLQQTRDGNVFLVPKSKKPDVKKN
# Method: A549 HiBiT-Nrf2 cells (Promega, Cat. No. CS3023219) were seeded into 384-well plates at cell density of 5,000 cells/well in 40 μL of cell culture medium (Ham's F-12 Nutrient Mix supplemented with 10% FBS and 1% antibiotic-antimycotic).
# The next day, cells were treated with representative Compounds of the Disclosure and incubated for 6 h and 20 h at 37° C., 5% CO2. Staurosporine was used as a control.
# At the end of incubation Nrf2 degradation (HiBiT readout) and cell viability (CellTiter-Glo readout) were determined. For HiBiT readout, Nano-Glo HiBiT Reagent mix (Promega, Cat. No. N3050) was added to wells, plates were incubated 2 min on an orbital shaker and incubated at room temperature in the dark for additional 30 minutes. At the end of incubation luminescence was measured using ultrasensitive luminescence mode (Envision, Perkin Elmer).
# A549 = experiment: Cancer cell viability, A549 (CellTiter-Glo); assay type: cell-based; conditions: Homo sapiens, 72 h, A549 cells, 3 days, read-out: Cellular IC50 (μM) A549
# Method: Representative Compounds of the Disclosure were tested in A549 (Vendor: ATCC; Cat #CCL-185; Description: lung, carcinoma) and/or LK-2 (Vendor: Riken; Cat #RCB1970; Description: lung, squamous cell carcinoma) cellular viability assays according to the following general protocol. • 1. Observed the cells under microscope. • 2. Aspirated the media and added 5 mL trypsin and incubate for 3 mins. • 3. Added 10 mL fresh media and harvested all the cells in to 15 mL tubes. • 4. Centrifuged the cells at 1000 rpm for 5 mins. • 5. Re-suspended the cells with 11 mL media and took 1 mL to determine the cell number and viability. • 6. Prepared cells suspension at 20 K/mL (A549) or 35 K/mL (LK-2) • 7. Seeded the cells into 96-well plate and incubated for overnight. • 8. […] After 3 days, took out the plates from the incubator and observed the cells under microscope. • 10. Passed a film at the bottom of the plates. • 11. Equilibrated the plate and its contents at room temperature for approximately 30 minutes. • 12. Thawed the CellTiter-Glo® Buffer and equilibrated to room temperature prior to use. • 13. Equilibrated the lyophilized CellTiter-Glo® Substrate to room temperature prior to use. • 14. Transferred 100 ml of CellTiter-Glo® Buffer into the amber bottle containing CellTiter-Glo® Substrate to reconstituted the lyophilized enzyme/substrate mixture. • 15. Mixed by gently vortexing, swirling or inverting the contents to obtain a homogeneous solution. • 16. Added 100 μL CellTiter-Glo® Reagent into each well • 17. Mixed contents for 15 minutes on an orbital shaker to induce cell lysis. • 18. Recorded luminescence with EnSpire machine. • 19. Passed the raw data into the file and analyzed the data with XLfit software.
# [1] = 6 h, read-out: DC50 (nM) at 6 h
# [2] = 20 h, read-out: DC50 (nM) at 20 h
Structure (SMILES),DC50 (Nrf2; [1]),DC50 (Nrf2; [2]),IC50 (A549)
"Cc1sc(NC(=O)Cc2cccc(OCCC(C)CCNc3cccc4c3C(=O)N(C3CCC(=O)NC3=O)C4=O)c2)nc1-c1ccc2c(c1)CCN2C(=O)C1CC1 (stereo not drawn) [Cpd. No. 41, N-(4-(1-(cyclopropanecarbonyl)indolin-5-yl)-5-methylthiazol-2-yl)-2-(3-((5-((2-(2,6-dioxopiperidin-3-yl)-1,3-dioxoisoindolin-4-yl)amino)-3-methylpentyl)oxy)phenyl)acetamide]",< 300 nM,< 300 nM,–
"Cc1sc(NC(=O)Cc2cccc(OCCC(C)CCOc3cccc4c3C(=O)N(C3CCC(=O)NC3=O)C4=O)c2)nc1-c1ccc2c(c1)CCN2C(=O)C1CC1 (stereo not drawn) [Cpd. No. 47, N-(4-(1-(cyclopropanecarbonyl)indolin-5-yl)-5-methylthiazol-2-yl)-2-(3-((5-((2-(2,6-dioxopiperidin-3-yl)-1,3-dioxoisoindolin-4-yl)oxy)-3-methylpentyl)oxy)phenyl)acetamide]",300 to 3000 nM,300 to 3000 nM,–
"Cc1sc(NC(=O)Cc2cccc(OCCCCNc3cccc4c3C(=O)N(C3CCC(=O)NC3=O)C4=O)c2)nc1-c1ccc2c(c1)CCN2C(=O)C1CC1 (stereo not drawn) [Cpd. No. 65, N-(4-(1-(cyclopropanecarbonyl)indolin-5-yl)-5-methylthiazol-2-yl)-2-(3-(4-((2-(2,6-dioxopiperidin-3-yl)-1,3-dioxoisoindolin-4-yl)amino)butoxy)phenyl)acetamide]",< 300 nM,< 300 nM,0.12 µM
"CC(=O)N1CCc2cc(-c3nc(NC(=O)Cc4cccc(OCCCCCNc5cccc6c5C(=O)N(C5CCC(=O)NC5=O)C6=O)c4)sc3C)ccc21 (stereo not drawn) [Cpd. No. 67, N-(4-(1-acetylindolin-5-yl)-5-methylthiazol-2-yl)-2-(3-((5-((2-(2,6-dioxopiperidin-3-yl)-1,3-dioxoisoindolin-4-yl)amino)pentyl)oxy)phenyl)acetamide]",< 300 nM,< 300 nM,0.75 µM
"Cc1sc(NC(=O)Cc2cccc(OCCOCCNc3cccc4c3C(=O)N(C3CCC(=O)NC3=O)C4)c2)nc1-c1ccc2c(c1)CCN2C(=O)C1CC1 (stereo not drawn) [Cpd. No. 81, N-(4-(1-(cyclopropanecarbonyl)indolin-5-yl)-5-methylthiazol-2-yl)-2-(3-(2-(2-((2-(2,6-dioxopiperidin-3-yl)-3-oxoisoindolin-4-yl)amino)ethoxy)ethoxy)phenyl) acetamide]",–,–,> 30 µM
"Cc1sc(NC(=O)Cc2cccc(OCCC(C)CCNc3ccc4c(c3)C(=O)N(C3CCC(=O)NC3=O)C4=O)c2)nc1-c1ccc2c(c1)CCN2C(=O)C1CC1 (stereo not drawn) [compound 50, N-(4-(1-(cyclopropanecarbonyl)indolin-5-yl)-5-methylthiazol-2-yl)-2-(3-((5-((2-(2,6-dioxopiperidin-3-yl)-1,3-dioxoisoindolin-5-yl)amino)-3-methylpentyl)oxy)phenyl)acetamide]",300 to 3000 nM,300 to 3000 nM,–
"Cc1ncccc1C(=O)N1CCc2cc(-c3nc(NC(=O)Cc4cccc(OCCCCCNc5cccc6c5C(=O)N(C5CCC(=O)NC5=O)C6=O)c4)sc3C)ccc21 (stereo not drawn) [compound 83, 2-(3-((5-((2-(2,6-dioxopiperidin-3-yl)-1,3-dioxoisoindolin-4-yl)amino)pentyl)oxy)phenyl)-N-(5-methyl-4-(1-(2-methylnicotinoyl)indolin-5-yl)thiazol-2-yl)acetamide]",–,–,0.045 µM
"Cc1cccnc1C(=O)N1CCc2cc(-c3nc(NC(=O)Cc4cccc(OCCCCCNc5cccc6c5C(=O)N(C5CCC(=O)NC5=O)C6=O)c4)sc3C)ccc21 (stereo not drawn) [compound 86, 2-(3-((5-((2-(2,6-dioxopiperidin-3-yl)-1,3-dioxoisoindolin-4-yl)amino)pentyl)oxy)phenyl)-N-(5-methyl-4-(1-(3-methylpicolinoyl)indolin-5-yl)thiazol-2-yl)acetamide]",–,–,0.072 µM

# The remaining lines, values ahead:
DC50 (Nrf2; [1]),DC50 (Nrf2; [2]),IC50 (A549),Structure (SMILES)
> 3000 nM,–,–,"Cc1sc(NC(=O)Cc2cccc(OCCC(C)(C)CCNc3cccc4c3C(=O)N(C3CCC(=O)NC3=O)C4=O)c2)nc1-c1ccc2c(c1)CCN2C(=O)C1CC1 (stereo not drawn) [Cpd. No. 42, N-(4-(1-(cyclopropanecarbonyl)indolin-5-yl)-5-methylthiazol-2-yl)-2-(3-((5-((2-(2,6-dioxopiperidin-3-yl)-1,3-dioxoisoindolin-4-yl)amino)-3,3-dimethylpentyl)oxy)phenyl)acetamide]"
< 300 nM,< 300 nM,–,"Cc1sc(NC(=O)Cc2cccc(OCCN(C)CCNc3cccc4c3C(=O)N(C3CCC(=O)NC3=O)C4=O)c2)nc1-c1ccc2c(c1)CCN2C(=O)C1CC1 (stereo not drawn) [Cpd. No. 44, N-(4-(1-(cyclopropanecarbonyl)indolin-5-yl)-5-methylthiazol-2-yl)-2-(3-(2-((2-((2-(2,6-dioxopiperidin-3-yl)-1,3-dioxoisoindolin-4-yl)amino)ethyl)(methyl)amino)ethoxy)phenyl)acetamide]"
> 3000 nM,300 to 3000 nM,–,"Cc1sc(NC(=O)Cc2cccc(OCCC(C)(C)CCOc3cccc4c3C(=O)N(C3CCC(=O)NC3=O)C4=O)c2)nc1-c1ccc2c(c1)CCN2C(=O)C1CC1 (stereo not drawn) [Cpd. No. 48, N-(4-(1-(cyclopropanecarbonyl)indolin-5-yl)-5-methylthiazol-2-yl)-2-(3-((5-((2-(2,6-dioxopiperidin-3-yl)-1,3-dioxoisoindolin-4-yl)oxy)-3,3-dimethylpentyl)oxy)phenyl)acetamide]"
< 300 nM,< 300 nM,–,"Cc1sc(NC(=O)Cc2cccc(OCCC(C)(C)CCNc3ccc4c(c3)C(=O)N(C3CCC(=O)NC3=O)C4=O)c2)nc1-c1ccc2c(c1)CCN2C(=O)C1CC1 (stereo not drawn) [Cpd. No. 51, N-(4-(1-(cyclopropanecarbonyl)indolin-5-yl)-5-methylthiazol-2-yl)-2-(3-((5-((2-(2,6-dioxopiperidin-3-yl)-1,3-dioxoisoindolin-5-yl)amino)-3,3-dimethylpentyl)oxy)phenyl)acetamide]"
300 to 3000 nM,< 300 nM,0.16 µM,"Cc1sc(NC(=O)Cc2cccc(OCCCCCCNc3cccc4c3C(=O)N(C3CCC(=O)NC3=O)C4=O)c2)nc1-c1ccc2c(c1)CCN2C(=O)C1CC1 (stereo not drawn) [Cpd. No. 66, N-(4-(1-(cyclopropanecarbonyl)indolin-5-yl)-5-methylthiazol-2-yl)-2-(3-((6-((2-(2,6-dioxopiperidin-3-yl)-1,3-dioxoisoindolin-4-yl)amino)hexyl)oxy)phenyl)acetamide]"
–,–,0.046 µM,"Cc1cnccc1C(=O)N1CCc2cc(-c3nc(NC(=O)Cc4cccc(OCCCCCNc5cccc6c5C(=O)N(C5CCC(=O)NC5=O)C6=O)c4)sc3C)ccc21 (stereo not drawn) [compound 84, 2-(3-((5-((2-(2,6-dioxopiperidin-3-yl)-1,3-dioxoisoindolin-4-yl)amino)pentyl)oxy)phenyl)-N-(5-methyl-4-(1-(3-methylisonicotinoyl)indolin-5-yl)thiazol-2-yl)acetamide]"
–,–,0.047 µM,"Cc1ccncc1C(=O)N1CCc2cc(-c3nc(NC(=O)Cc4cccc(OCCCCCNc5cccc6c5C(=O)N(C5CCC(=O)NC5=O)C6=O)c4)sc3C)ccc21 (stereo not drawn) [compound 85, 2-(3-((5-((2-(2,6-dioxopiperidin-3-yl)-1,3-dioxoisoindolin-4-yl)amino)pentyl)oxy)phenyl)-N-(5-methyl-4-(1-(4-methylnicotinoyl)indolin-5-yl)thiazol-2-yl)acetamide]"

# Source: patent US20260055097A9, “NRF2 PROTEIN DEGRADERS” (Ganymede Oncology, Inc., priority 2022, published 2026)
